From patent US20230357189A1, “MODIFIED FLUOROQUINOLONES AND USES THEREOF” (Technion Research & Development Foundation Limited, priority 2021, published 2023)
≈ marks a conversion by molar mass, not a printed value.

Columns and labels:
[1] = tested on: Staphylococcus Epidermidis; assay: Antibacterial activity, MIC by double-microdilution method; assay type: cell-based; details: for Gram-positive MIC c: Table 2
[2] = target: T1, E. coli DNA gyrase (Escherichia coli, UniProt P0AES4+P0AES6); assay: E. coli Gyrase-DNA supercoiling assay; assay type: biochemical; details: supercoiling of relaxed pHOT-1 plasmid in presence of ATP; 37° C., 60 minutes
T1 construct: purchased TopoGEN
Procedure: The DNA supercoiling reactions were based on the manufacturer protocol (TopoGEN). The amount of DNA gyrase used in each assay was optimized by testing various dilutions of the stock. The amount sufficient to supercoil 250 nanograms (ng) of the substrate in 1 hour at 37° C. was then used for testing the compounds (1.1 U as defined by manufacturer). Assays (30 μL) contained 250 nanograms of relaxed pHOT1 plasmid DNA in Tris-HCl buffer (35 mM), pH 7.5, containing KCl (24 mM), MgCl2 (4 mM), DTT (2 mM), Spermidine (1.8 mM), ATP (1 mM), 6.5% (w/v) glycerol and bovine serum albumin (0.1 mg/ml). Reactions were incubated at 37° C. for 60 minutes. Reaction mixtures were stopped by the addition of 30 μL of loading buffer (40% sucrose, 100 mM Tris·HCl (pH 7.5), 1 mM EDTA, 0.5 mg×mL^−1 bromophenol blue) and worked up using 30 μL of 24:1 chloroform/isoamyl alcohol mixture; the aqueous layer was then analyzed using electrophoresis.
Electrophoresis, gel staining, DNA visualization and DNA quantification were performed as described for the DNA cleavage assays.

[3] = tested on: Escherichia coli 25922; assay: Antibacterial activity, MIC by double-microdilution method; assay type: cell-based
[4] = tested on: Escherichia coli R477-100; assay: as above; assay type: cell-based; details: Escherichia coli R477-100
[5] = tested on: Bacillus Subtilis; assay: as above; assay type: cell-based
[6] = target: T1, E. coli DNA gyrase; assay: E. coli Gyrase-DNA cleavage assay; assay type: biochemical; details: for linearization of supercoiled DNA with DNA gyrase, after Proteinase K / generation of linear DNA with DNA gyrase, without Proteinase K: absence of ATP; for linearization of supercoiled DNA with DNA gyrase, after Proteinase K: second incubation with SDS and Proteinase K; for generation of linear DNA with DNA gyrase, without Proteinase K / concentration of maximum linear DNA (bell-shaped profile): without Proteinase K treatment; for generation of linear DNA with DNA gyrase, without Proteinase K: buffer with DTT
Procedure: E. coli gyrase enzyme was purchased from TopoGEN and the DNA cleavage reactions were based on the protocol of Inspiralis. Assays (30 μL) contained supercoiled (+) pHOT1 plasmid (200 nanograms) and DNA gyrase (5 U as defined by manufacturer) in 35 mM Tris-HCl (pH 7.5), 24 mM KCl, 4 mM MgCl2, 2 mM DTT, 1.8 mM Spermidine, 6.5% (w/v) glycerol and 0.1 mg/mL bovine serum albumin. Reactions were incubated at 37° C. for 60 minutes. Enzyme-DNA cleavage complexes were trapped by adding 3 μL of 2% SDS. Following this, 1.5 μL of 10 mg/mL Proteinase K (Sigma-Aldrich) was added (where relevant) and the reaction mixtures were incubated at 37° C. for 30 minutes to digest the enzyme gyrase. Samples were mixed with 30 μL of loading buffer (40% sucrose, 100 mM Tris-HCl (pH 7.5), 1 mM EDTA, 0.5 mg-ml-1 bromophenol blue) and worked up using 30 μL of 24:1 chloroform/isoamyl alcohol mixture; the aqueous layer was then analyzed using electrophoresis. Electrophoresis, gel staining, DNA visualization and DNA quantification were performed as described for the DNA cleavage assays. DNA double stranded cleavage was monitored by the conversion of supercoiled plasmid to linear DNA and quantified in comparison to a control drug-free reaction.
To investigate the mechanism of inhibition, a DNA gyrase-induced DNA cleavage assay was performed in the absence of ATP. In this assay, the production of linear DNA from supercoiled DNA is measured as a function of compound concentration. […] Consequently, for the purposes of this assay, it is necessary to perform a second incubation of the reaction mixture with SDS and Proteinase K, which enables the digestion of the DNA gyrase enzyme and thereby ‘frees’ the linear DNA (Form III) so that it moves during electrophoresis.

[7] = tested on: supercoiled (+) pHOT-1 plasmid DNA; assay: DNA cleavage assay (gel electrophoresis); assay type: biochemical; details: for DNase activity (cleavage of supercoiled plasmid, form I to form II): absence of adjuvants, HEPES buffer (50 mM, pH 7.4), 5 hours
Procedure: Removal of Ligands Prior to Electrophoresis was performed when more than 100 μM of Cu(II)-ligand or Co(III) ligand (at any concentration) complexes were employed that is, for DNA cleavage assays that were performed in the absence of any adjuvants. An Amberlyst® 15 (Sigma Aldrich) ion-exchange resin was prepared according to the reported literature [Hettich et al. J. Am. Chem. Soc. 1997, 119 (24), 5638-5647] and stored at −20° C. Before use, 0.5 gram of the exchanger was mixed with 250 μL of water. After stopping the DNA-cleavage reaction by addition of EDTA (54 mM, 15 minutes incubation at 37° C.), 10 μL of the exchanger suspension was added, vortexed, and incubated at 37° C. for 15 minutes before centrifugation and electrophoresis.
DNA cleavage activity of the tested Complexes towards supercoiled (+) pHOT-1 plasmid DNA (TopoGEN) was monitored by gel electrophoresis. In a typical experiment, plasmid DNA (200 ng, […]) in HEPES buffer (50 mM, pH 7.4) was mixed with different concentrations of a tested metal complex in the presence or absence of ascorbic acid (0.32 mM). All stock solutions of buffers and of the metal complexes were prepared using HPLC grade water (ChromAR®). Molecular biology reagent grade water (Sigma) was added up to a total reaction volume of 30 μL before incubation for a given time. For the ascorbic acid assays, the reaction was quenched immediately after incubation with EDTA (54 mM). For analysis, 10 μL of loading buffer (40% sucrose, 100 mM Tris-HCl (pH 7.5), 1 mM EDTA, 0.5 mg·mL^−1 bromophenol blue) was added to the incubated solution and loaded onto an agarose (SeaKem LE) gel [1% in TAE×1 buffer (40 mM Tris, 20 mM acetic acid, 1 mM EDTA)]. Electrophoresis was carried out at 60 V for 2 hours. Gels were stained with 1 μg·mL^−1 ethidium bromide for 30 minutes and de-stained in TAE×1 buffer. DNA bands were visualized with medium-range ultraviolet light using Bio-Rad Gel Doc XR+ imaging system. The quantity of different DNA forms (I or II) was estimated using ImageJ software.
Chem. 2015, 2015 (28), 4722-4730; Kashiba-Iwatsuki et al. FEBS Lett. 1996, 389 (2), 149-15].
The copper complex of compound 2 (2-Cu(II)) was used as the positive control in these assays.

[8] = tested on: Gram-negative and Gram-positive bacteria; assay: Comparative antibacterial activity, all tested bacteria; assay type: cell-based; details: MIC, Table 2 and 3
Procedure: Comparative antibacterial activities were determined by measuring the MIC values by using the double-microdilution method according to the National Committee for Clinical Laboratory Standards (NCCLS). The Luria-Bertani growth medium and polypropylene 96-well plates (Thermo) were used unless otherwise stated. All the experiments were performed in triplicate, and analogous results were obtained in three different experiments.
Compounds 1-6 and their Cu(II) and Co(III) complexes, as well as the pendant-bearing compounds 19-23 and 26 were tested for their comparative antibacterial activity by determining MIC values against two Gram-negative E. coli strains (AR477-100 and 25922) and two Gram-positive strains, Staphylococcus Epidermidis, and Bacillus Subtilis.

[9] = Table 2, Escherichia coli 25922

T1 sequence (P0AES4 whole entry, one chain of several): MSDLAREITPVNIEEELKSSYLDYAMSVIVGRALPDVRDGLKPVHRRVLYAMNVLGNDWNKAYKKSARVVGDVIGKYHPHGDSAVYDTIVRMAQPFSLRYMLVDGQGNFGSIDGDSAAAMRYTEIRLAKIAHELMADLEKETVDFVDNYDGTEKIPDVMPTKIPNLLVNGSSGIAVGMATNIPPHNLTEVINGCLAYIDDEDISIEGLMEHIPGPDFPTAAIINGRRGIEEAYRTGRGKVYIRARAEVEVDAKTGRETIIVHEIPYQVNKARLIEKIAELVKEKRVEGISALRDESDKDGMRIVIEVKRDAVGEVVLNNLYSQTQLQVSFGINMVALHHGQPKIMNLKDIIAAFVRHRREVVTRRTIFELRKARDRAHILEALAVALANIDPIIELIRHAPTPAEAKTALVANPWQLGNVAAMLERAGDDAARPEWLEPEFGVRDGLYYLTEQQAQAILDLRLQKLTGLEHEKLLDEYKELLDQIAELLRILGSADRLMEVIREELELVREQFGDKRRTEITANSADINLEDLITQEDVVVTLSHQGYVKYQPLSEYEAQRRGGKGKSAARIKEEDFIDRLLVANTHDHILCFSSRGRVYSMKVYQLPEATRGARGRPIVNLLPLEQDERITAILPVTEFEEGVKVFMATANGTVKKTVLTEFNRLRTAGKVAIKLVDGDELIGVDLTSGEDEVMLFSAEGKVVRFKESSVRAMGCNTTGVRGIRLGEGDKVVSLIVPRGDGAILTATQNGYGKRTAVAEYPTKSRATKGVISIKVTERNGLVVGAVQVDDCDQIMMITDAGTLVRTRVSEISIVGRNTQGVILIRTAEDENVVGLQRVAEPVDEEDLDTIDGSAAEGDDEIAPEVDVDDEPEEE

Compound | MIC ([1]; Table 2, read-out: Gram-positive MIC c) | IC50 [2] | MIC ([3]; Table 2, Escherichia coli 25922, read-out: Gram-negative MIC b) | MIC ([4]; R477100, Table 2, without DTT, read-out: Gram-negative MIC a) | MIC ([5]; Table 2, Bacillus Subtilis, read-out: Gram-positive MIC d) | linearization of supercoiled DNA with DNA gyrase, after Proteinase K [6] | Gram-positive MIC c [1] | DNase activity (cleavage of supercoiled plasmid, form I to form II) [7] | improvement of MIC in the presence of DTT ([3]; 10 mM DTT vs without DTT, E. coli 25922) | Gram-negative MIC b [3, 9] | Gram-negative MIC, DTT 10 mM ([4]; DTT 10 mM) | Gram-negative MIC a ([4]; Table 2, without DTT) | improvement of MIC in the presence of DTT ([5]; 10 mM DTT vs without DTT, Gram-positive B. Subtilis) | Gram-positive MIC d ([5]; Table 2, Bacillus Subtilis) | generation of linear DNA with DNA gyrase, without Proteinase K [6] | concentration of maximum linear DNA (bell-shaped profile) [6] | concentration giving almost complete smearing of the DNA (multiply nicked DNA) ([7]; ascorbic acid (0.32 mM), HEPES pH 7.4, 2 hours) | antibacterial activity (in words) [8]
O=C(O)c1cn(C2CC2)c2cc(N3CCN(CCCCCCCN4CCNCCNCCNCC4)CC3)c(F)cc2c1=O [Compound 2] | 12 µg/mL (≈ 20 µM) | 240 ± 30 nM | 6 µg/mL (≈ 10 µM) | 12 µg/mL (≈ 20 µM) | 12 µg/mL (≈ 20 µM) | significant linearization of DNA | – | – | – | – | – | – | – | – | – | – | – | –
O.O=C(O)c1cn(C2CC2)c2cc(N3CCN(Cc4ccc(CN5CCNCCNCCNCC5)cc4)CC3)c(F)cc2c1=O.[Cu+2] [4-Cu(II)] | – | 140 ± 20 nM | – | – | – | linearized the DNA in a similar manner to the metal-free ligands | 3 µg/mL | very significant enhancement in the rates of DNA cleavage | 4 fold | 12 µg/mL | 3.0 µg/mL | 24 µg/mL | 4 fold | 6 µg/mL | able to generate a significant quantity of linear DNA | 25 µM | – | –
O.O=C(O)c1cn(C2CC2)c2cc(N3CCN(CCCCCCCN4CCNCCNCCNCC4)CC3)c(F)cc2c1=O.[Cu+2] [2-Cu(II)] | – | 240 ± 30 nM | – | – | – | linearized the DNA in a similar manner to the metal-free ligands | 12 µg/mL | significant cleavage enhancement even in relation to the activity of 1-Cu(II) and 4-Cu(II) | – | 6 µg/mL | – | 12 µg/mL | – | 12 µg/mL | able to generate a significant quantity of linear DNA | 25 µM | 20 µM | –
O.O=C(O)c1cn(C2CC2)c2cc(N3CCN(Cc4ccc(CCCN5CCNCCNCCNCC5)cc4)CC3)c(F)cc2c1=O.[Co+3].[OH-] [6-Co(III)] | – | – | – | – | – | – | 3 µg/mL | – | – | 3 µg/mL | – | 6 µg/mL | – | 3 µg/mL | – | – | – | slightly higher activity
